# Results taken from ChEMBL document CHEMBL3046744, “Comparison of the declining triazole sensitivity of Gibberella zeae and increased sensitivity achieved by advances in triazole fungicide development” (Crop Prot, 2007).
# Activity calls are given as the source filed them. The rule behind the calls is not given here.
# What was measured:
# [1] = Toxicity in po dosed Rattus norvegicus (rat); type: organism-based; conditions: in vivo
# Fusarium graminearum [2] = experiment: Antifungal activity against Fusarium graminearum isolate 137 after 8 hr by microscopic analysis; type: functional, organism-based; conditions: isolate 137, 8 h, pooled result: one value given for 5 cell lines, strains, targets or settings
# [3] = Selectivity ratio of relative toxicity against po dosed rat to relative efficacy against Gibberella zeae; type: organism-based; conditions: in vivo
# Rattus norvegicus = experiment: Toxicity in po dosed Rattus norvegicus (rat) relative to metconazole; type: organism-based; conditions: in vivo
# Fusarium culmorum = experiment: Antifungal activity against Fusarium culmorum infected durum wheat assessed as reduction in deoxynivalenol content in crop; type: functional; parameters: scale not given: the % may be the effect or the level left
# Fusarium graminearum [4] = experiment: Antifungal activity against Fusarium graminearum after 8 hr by microscopic analysis relative to prothioconazole; type: functional
# Fusarium graminearum [5] = experiment: Growth inhibition of Fusarium graminearum at >/= 0.001 M after 14 days; type: functional, organism-based
# [6] = Aqueous solubility of the compound assessed per 100 g; type: physicochemical; conditions: buffer
# Fusarium graminearum [7] = experiment: Growth inhibition of Fusarium graminearum isolate 4527b at 10^-4 M after 14 days; type: functional; conditions: 336 h, read-out: GI
# Fusarium graminearum [8] = experiment: Growth inhibition of Fusarium graminearum isolate 102 at 10^-4 M after 14 days; type: functional; conditions: isolate 102, 336 h, read-out: GI
# Fusarium graminearum [9] = experiment: Growth inhibition of Fusarium graminearum isolate 106 at 10^-4 M after 14 days; type: functional; conditions: isolate 106, 336 h, read-out: GI
# Fusarium graminearum [10] = experiment: Growth inhibition of Fusarium graminearum isolate 37 at 10^-4 M after 14 days; type: functional; conditions: isolate 37, 336 h, read-out: GI
# Fusarium graminearum [11] = experiment: Growth inhibition of Fusarium graminearum isolate 123 at 10^-4 M after 14 days; type: functional; conditions: isolate 123, 336 h, read-out: GI
# Fusarium graminearum [12] = experiment: Growth inhibition of Fusarium graminearum isolate 137 at 10^-4 M after 14 days; type: functional; conditions: isolate 137, 336 h, read-out: GI
# Fusarium graminearum [13] = experiment: Growth inhibition of Fusarium graminearum isolate 74B at 10^-4 M after 14 days; type: functional; conditions: 336 h, read-out: GI
# [14] = Aqueous solubility of the compound assessed per 100 g at pH 7; type: physicochemical; conditions: buffer
Compound,LD50 [1] [mg/kg],EC50 (Fusarium graminearum [2]) [µM],selectivity ratio [3],fold change (FC) (Rattus norvegicus),Activity (Fusarium culmorum) [%],fold change (FC) (Fusarium graminearum [4]),solubility [6] [mg],also measured
OC(Cc1ccccc1Cl)(Cn1nc[nH]c1=S)C1(Cl)CC1 (stereo unspecified) [PROTHIOCONAZOLE],6200,32,10.3,0.1,,,,
Clc1ccc(C2(Cn3cncn3)CC(Br)CO2)c(Cl)c1 (stereo unspecified) [BROMUCONAZOLE],,,,,43,,,
CC(C)(C)C(O)(CCc1ccc(Cl)cc1)Cn1cncn1 (stereo unspecified) [TEBUCONAZOLE],1700,327,0.44,0.35,43,0.15,3.6,growth inhibition (GI) (Fusarium graminearum [5]): Active
Fc1ccc([C@]2(Cn3cncn3)O[C@H]2c2ccccc2Cl)cc1 [EPOXICONAZOLE],3160,10800,,0.19,,0,0.7,inhibition of growth at 100 µM (Fusarium graminearum [7]): 98%; inhibition of growth at 100 µM (Fusarium graminearum [8]): 97.1%; inhibition of growth at 100 µM (Fusarium graminearum [9]): 95.4%; inhibition of growth at 100 µM (Fusarium graminearum [10]): 98.7%; inhibition of growth at 100 µM (Fusarium graminearum [11]): 95.9%; inhibition of growth at 100 µM (Fusarium graminearum [12]): 99.6%; inhibition of growth at 100 µM (Fusarium graminearum [13]): 95.7%
CCCN(CCOc1c(Cl)cc(Cl)cc1Cl)C(=O)n1ccnc1 [PROCHLORAZ],,,,,43,,,
CC1(C)CCC(Cc2ccc(Cl)cc2)C1(O)Cn1cncn1 (stereo unspecified) [METCONAZOLE],660,177,0.27,,,0.27,,solubility [14]: 3 mg
